Results: patent publication US9776972B2, “Pyrazole derivatives as arginine methyltransferase inhibitors and uses thereof” (priority 2013, dated 2017)
pIC50: −log10 of the molar value.

Key:
[1] = tested on: mono-methyl arginine in RKO cells; experiment: RKO Methylation Assay, In Cell Western (ICW) for mono-methyl arginine and DNA content; assay type: cell-based; settings: Homo sapiens, RKO, 72 h, RKO cells, 72 hours, mono-methyl arginine, percent activation; single experiment or average of multiple experiments; read-out: EC30 (In Cell Western data, Numerical)
Outline: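 RKO cells treated with compound for 72 hours at 37 °C, then methanol-fixed and stained overnight at 4 °C with anti-mono-methyl arginine antibody, plus DRAQ5 for DNA. Signal ratio from 700 and 800 nm infrared scans normalized to DMSO (minimum) and 20 μM reference compound (maximum); EC30 from triplicate curves.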

human PRMT1 = molecular target: T1, human PRMT1 (Homo sapiens, UniProt Q99873); experiment: PRMT1 Biochemical Assay (3H-SAM Flashplate, peptide substrate); settings: single experiment or average of multiple experiments
T1 construct: GST-tagged PRMT1; made in house; host or cells: High Five insect cells (baculovirus)
T1 sequence (Q99873 with tags, fused parts or gaps): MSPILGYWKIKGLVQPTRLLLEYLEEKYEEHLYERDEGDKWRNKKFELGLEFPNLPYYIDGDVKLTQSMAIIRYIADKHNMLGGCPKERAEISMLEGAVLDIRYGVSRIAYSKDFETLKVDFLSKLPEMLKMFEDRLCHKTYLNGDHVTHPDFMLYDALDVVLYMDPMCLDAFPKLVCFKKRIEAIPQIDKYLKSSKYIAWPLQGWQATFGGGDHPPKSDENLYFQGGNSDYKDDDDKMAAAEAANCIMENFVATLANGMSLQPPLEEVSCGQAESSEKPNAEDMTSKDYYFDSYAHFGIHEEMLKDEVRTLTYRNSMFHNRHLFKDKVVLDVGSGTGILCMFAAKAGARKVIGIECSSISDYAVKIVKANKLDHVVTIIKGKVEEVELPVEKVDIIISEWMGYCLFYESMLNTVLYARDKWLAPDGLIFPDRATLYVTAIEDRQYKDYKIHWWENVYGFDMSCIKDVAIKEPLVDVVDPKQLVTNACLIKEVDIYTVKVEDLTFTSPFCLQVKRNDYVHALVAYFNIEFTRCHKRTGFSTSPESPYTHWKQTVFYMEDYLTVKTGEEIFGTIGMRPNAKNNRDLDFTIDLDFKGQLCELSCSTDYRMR
Outline: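 GST-tagged PRMT1 from baculovirus-infected cells, preincubated with compounds 30 min at room temperature in 20 mM Bicine pH 7.6, 1 mM TCEP, 0.005% BSG, 0.002% Tween 20. Reaction started with ³H-SAM plus biotinylated peptide, stopped with 300 µM cold SAM.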

SMILES | EC30 [1] [nM] | pIC50 (human PRMT1)
CNCCN(C)Cc1n[nH]cc1-c1ccc(Oc2cccc(F)c2)cc1 [Compound 270] | 1060 | 8.55
CNCCN(C)Cc1n[nH]cc1-c1cc(CC(C)C)cc(CC(C)C)c1 [Compound 271] | > 20000 | 7.28
CNCCN(C)Cc1n[nH]cc1-c1cc(OC(C)C)cc(C(C)C)c1 [Compound 272] | > 20000 | 6.81
CNCCN(C)Cc1n[nH]cc1-c1cc(Cl)c(OC(C)C)c(Cl)c1 [Compound 273] | 1300 | 8.07
CNCCN(C)Cc1c[nH]nc1-c1ccc(Oc2ccccc2C(=O)NC)cc1 [Compound 274] | 3040 | 7.72
CNCCN(C)Cc1n[nH]c(C)c1-c1ccc(OC(C)C)cc1 [Compound 275] | 122 | 8.06
CNCCN(C)Cc1c(-c2ccc(OCCCOC)cc2)cnn1C [Compound 276] | > 20000 | < 6.00
CNCCN(C)Cc1n[nH]cc1-c1ccc(Oc2cccc(C(C)C)c2)cc1 [Compound 277] | > 20000 | 7.70
CNCCN(C)Cc1n[nH]cc1-c1ccc(Oc2ccccc2F)cc1 [Compound 279, N^1-((4-(4-(2-fluorophenoxy)phenyl)-1H-pyrazol-3-yl)methyl)-N^1,N^2-dimethylethane-1,2-diamine] | 637 | 8.46
CC(C)Cc1cc(-c2n[nH]cc2CN(C)CCN)ccc1F [Compound 280] | 1720 | 8.37
CNCCN(C)Cc1c[nH]nc1-c1cc(CC(C)C)cc(CC(C)C)c1 [Compound 281] | 3520 | 7.95
CNCCN(C)Cc1c[nH]nc1-c1cc(Cl)c(OCC2CC2)c(Cl)c1 [Compound 282] | 383 | 8.66
